# Columns and labels:
# Type in all cases: biochemical
# [1] = target: JAK1 (Homo sapiens (Human), UniProt P23458); experiment: JAK enzymatic assay (peptide mobility shift), JAK1; settings: recombinant JAK1 20 nM, IRS-1 peptide, 240 minutes
# [2] = target: JAK3 (Homo sapiens (Human), UniProt P52333); experiment: JAK enzymatic assay (peptide mobility shift), JAK3; settings: recombinant JAK3 1 nM, JAKtide peptide, 90 minutes
# [3] = target: JAK2 (Homo sapiens (Human), UniProt O60674); experiment: JAK enzymatic assay (peptide mobility shift), JAK2; settings: recombinant JAK2 2 nM, JAKtide peptide, 150 minutes
# Sequence of JAK2 (O60674 808-1132): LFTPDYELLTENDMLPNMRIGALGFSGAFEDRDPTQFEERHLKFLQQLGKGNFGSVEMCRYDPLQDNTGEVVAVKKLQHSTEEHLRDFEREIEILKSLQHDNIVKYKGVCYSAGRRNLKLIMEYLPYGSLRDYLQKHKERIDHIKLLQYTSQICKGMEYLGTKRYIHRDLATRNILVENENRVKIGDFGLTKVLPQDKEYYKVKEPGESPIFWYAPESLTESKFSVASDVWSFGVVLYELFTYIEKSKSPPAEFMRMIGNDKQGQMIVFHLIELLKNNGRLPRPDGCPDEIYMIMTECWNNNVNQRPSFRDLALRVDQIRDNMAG
# Sequence of JAK3 (P52333 781-1124): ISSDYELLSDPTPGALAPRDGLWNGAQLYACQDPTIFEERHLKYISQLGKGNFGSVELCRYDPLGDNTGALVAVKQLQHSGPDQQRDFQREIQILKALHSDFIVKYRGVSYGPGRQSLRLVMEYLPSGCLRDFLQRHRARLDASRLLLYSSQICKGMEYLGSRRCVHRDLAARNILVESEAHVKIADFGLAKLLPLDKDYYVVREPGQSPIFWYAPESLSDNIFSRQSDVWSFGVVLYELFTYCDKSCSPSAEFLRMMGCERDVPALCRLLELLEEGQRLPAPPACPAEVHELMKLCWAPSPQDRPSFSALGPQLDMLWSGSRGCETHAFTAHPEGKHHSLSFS
# Sequence of JAK1 (P23458 whole entry): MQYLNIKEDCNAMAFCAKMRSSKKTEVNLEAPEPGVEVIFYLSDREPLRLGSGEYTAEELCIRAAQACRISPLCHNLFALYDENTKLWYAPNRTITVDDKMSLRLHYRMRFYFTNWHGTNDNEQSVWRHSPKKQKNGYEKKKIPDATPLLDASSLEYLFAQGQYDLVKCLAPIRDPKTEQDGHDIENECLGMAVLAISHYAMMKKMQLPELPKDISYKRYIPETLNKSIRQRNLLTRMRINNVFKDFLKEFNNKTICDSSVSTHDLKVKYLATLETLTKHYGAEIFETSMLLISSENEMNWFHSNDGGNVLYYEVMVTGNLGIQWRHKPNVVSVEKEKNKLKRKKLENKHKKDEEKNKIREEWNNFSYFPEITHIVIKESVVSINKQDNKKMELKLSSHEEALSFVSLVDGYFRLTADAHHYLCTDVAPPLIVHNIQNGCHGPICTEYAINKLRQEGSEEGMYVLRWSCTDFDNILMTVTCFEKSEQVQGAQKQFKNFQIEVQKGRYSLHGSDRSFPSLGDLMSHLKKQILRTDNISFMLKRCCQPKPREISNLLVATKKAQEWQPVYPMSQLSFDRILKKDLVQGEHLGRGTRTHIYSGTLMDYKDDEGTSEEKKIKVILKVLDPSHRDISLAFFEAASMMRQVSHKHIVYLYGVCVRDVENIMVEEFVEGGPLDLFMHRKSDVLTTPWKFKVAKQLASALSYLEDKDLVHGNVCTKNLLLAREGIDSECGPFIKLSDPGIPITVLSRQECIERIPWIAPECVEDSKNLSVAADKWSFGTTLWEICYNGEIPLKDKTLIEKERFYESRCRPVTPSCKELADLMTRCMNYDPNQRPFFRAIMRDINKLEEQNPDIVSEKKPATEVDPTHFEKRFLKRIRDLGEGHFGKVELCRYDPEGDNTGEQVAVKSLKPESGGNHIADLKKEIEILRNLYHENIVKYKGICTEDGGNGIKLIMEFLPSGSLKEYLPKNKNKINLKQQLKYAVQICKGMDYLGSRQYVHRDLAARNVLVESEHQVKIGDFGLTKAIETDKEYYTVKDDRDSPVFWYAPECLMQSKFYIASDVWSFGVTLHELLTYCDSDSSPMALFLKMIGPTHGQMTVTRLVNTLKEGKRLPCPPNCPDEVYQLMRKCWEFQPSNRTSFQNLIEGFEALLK
IC50 [1] [nM],IC50 [2] [nM],IC50 [3] [nM],Structure (SMILES)
18,721,65.4,"CN(c1ncnc2[nH]ccc12)[C@H]1CC[C@H](CS(=O)(=O)N2CC[C@H](Cc3ccccc3)C2)CC1 [Example 104, N-(trans-4-{[(3-benzyl-pyrrolidin-1-yl)sulfonyl]-methyl}cyclohexyl)-N-methyl-7H-pyrrolo[2,3-d]-pyrimidin-4-amine]"
9.18,342,34.2,"CN(c1ncnc2[nH]ccc12)[C@H]1CC[C@H](CS(=O)(=O)N2CCC(O)CC2)CC1 [Example 9, 1-[({trans-4-[methyl(7H-pyrrolo[2,3-d]pyrimidin-4-yl)amino]cyclohexyl}methyl)-sulfonyl]piperidin-4-ol]"
14.8,492,46.8,"CN(c1ncnc2[nH]ccc12)[C@H]1CC[C@H](CS(=O)(=O)N2CCCC(O)(COc3cccc(F)c3)C2)CC1 (stereo partly drawn) [Example 19, 3-[(3-fluorophenoxy)-methyl]-1-[({trans-4-[methyl(7H-pyrrolo[2,3-d]pyrimidin-4-yl)amino]-cyclohexyl}methyl)sulfonyl]-piperidin-3-ol]"
2.98,125,27.2,"CN(c1ncnc2[nH]ccc12)[C@H]1CC[C@H](CS(=O)(=O)N2CC[C@H](S(C)(=O)=O)C2)CC1 [Example 76, N-methyl-N-[trans-4-({[3-(methylsulfonyl)pyrrolidin-1-yl]sulfonyl}methyl)-cyclohexyl]-7H-pyrrolo[2,3-d]pyrimidin-4-amine]"
6.06,745,54.7,"CCCS(=O)(=O)CC1CCCN(S(=O)(=O)C[C@H]2CC[C@H](N(C)c3ncnc4[nH]ccc34)CC2)C1 (stereo partly drawn) [Example 17, N-methyl-N-{trans-4-[({3-[(propylsulfonyl)methyl]-piperidin-1-yl}sulfonyl)-methyl]-cyclohexyl}-7H-pyrrolo[2,3-d]pyrimidin-4-amine]"
3.2,175,18,"CN(c1ncnc2[nH]ccc12)[C@H]1CC[C@H](CS(=O)(=O)N2CCC[C@H](O)C2)CC1 [Example 58, 1-[({trans-4-[methyl(7H-pyrrolo[2,3-d]pyrimidin-4-yl)-amino]cyclohexyl}-methyl)sulfonyl]piperidin-3-ol]"
8.8,122,29.5,"CN(c1ncnc2[nH]ccc12)[C@H]1CC[C@H](CS(=O)(=O)N2CCSC2)CC1 [Example 124, N-methyl-N-{trans-4-[(1,3-thiazolidin-3-ylsulfonyl)-methyl]cyclohexyl}-7H-pyrrolo[2,3-d]pyrimidin-4-amine]"
8.01,353,61.1,"CCC1(C(N)=O)CCN(S(=O)(=O)C[C@H]2CC[C@H](N(C)c3ncnc4[nH]ccc34)CC2)CC1 [Example 44, 4-ethyl-1-[({trans-4-[methyl(7H-pyrrolo[2,3-d]-pyrimidin-4-yl)amino]-cyclohexyl}methyl)sulfonyl] piperidine-4-carboxarnide]"
5.91,10000,32,"CN(c1ncnc2[nH]ccc12)[C@H]1CC[C@H](CS(=O)(=O)N2CCCC(COc3ccc(F)cc3)C2)CC1 (stereo partly drawn) [Example 15, N-{trans-4-[({3-[(4-fluoro-phenoxy)methyl]piperidin-1-yl}sulfonyl)methyl]-cyclohexyl}-N-methyl-7H-pyrrolo[2,3-d]pyrimidin-4-amine]"
12.5,612,45.8,"CN(c1ncnc2[nH]ccc12)[C@H]1CC[C@H](CS(=O)(=O)N2CC[C@](CO)(CCO)C2)CC1 [Example 95, 2-{3-(hydroxymethyl)-1-[({trans-4-[methyl(7H-pyrrolo[2,3-d]pyrimidin-4-yl)amino]cyclohexyl}-methyl)sulfonyl]pyrrolidin-3-yl}-ethanol]"
